Measurements reported in patent US10822376B2, “Biologically active peptides” (Baxalta Incorporated, priority 2008, dated 2020).
Read-outs that look alike come from different tables or passages of the source. Where no end group is shown, it is not given here.

How the values were obtained:
[1] = system: FVIII inhibited plasma; assay: Defined Dual-Pathway Thrombin Generation Assay (DDPTGA, reagent C high), FVIII inhibited plasma; type: biochemical, human; details: for Peak IIa FEIBA EU / Peak IIa FVIIa EU / Peak Time FEIBA EU / Peak Time FVIIa EU: FVIII inhibited plasma; for Activity in the Defined Dual-Pathway Thrombin Generation Assay: summary, FVIII inhibited or deficient plasma
[2] = system: FVIII deficient plasma; assay: Defined Dual-Pathway Thrombin Generation Assay (DDPTGA, reagent C high), FVIII deficient plasma; type: biochemical, human; details: FVIII deficient plasma
[3] = Acute toxicology in mice; type: in vivo, mouse; details: C57BL/6, mouse, in vivo, 60 minutes following administration, read-out: Max dose within toxicity category: No detected toxicity
Procedure: Toxicology studies involved monitoring of attitude changes due to toxic effects immediately after application and twice daily; monitoring of body weight; histopathology of brain, heart, kidney, liver, lung. Experiments were performed in C57131/6 mice.
C57BI/6 mice weighing 18-20 g were administered with compounds in a suitable vehicle i.v. in the tail vein or i.p. or s.c at 10 ml/kg. Quantities of the compounds administered were in the range of 0.075 to 125 mg/kg (i.v.), 15-125 mg/kg (i.p.) and 125 mg/kg (s.c.). There were four mice per group. Attitude changes due to toxic effects were monitored immediately after administration of the compound and for 60 minutes thereafter. Body weight was monitored for five days after administration. At day 5 after administration, mice were culled and autopsy performed. Brain, heart, kidney, liver, lung and spleen were biopsied.
In the above table, the maximum dose tested giving rise to no detected toxicity, some toxicity or severe toxicity over the period of 60 minutes following administration is reported. “No detected toxicity” indicates no acute toxic observations.

[4] = in vitro; details: human, plasma
Procedure: Half-life of compounds in human or mouse plasma, or percentage of compound remaining after an incubation in human or mouse plasma, is determined as follows. In the experimental procedure, test compound concentrations are 5 μM, prepared from test compound stock solutions of 10 mM in DMSO. Propantheline is used as a standard. […] All of the samples are incubated in a water bath at 37° C. […] After a chosen duration of incubation (generally at t=60 min) each sample is mixed with a further 500 μl acetonitrile. The samples are mixed on a vortex mixer for 30 s and placed on ice for 10 min and collected for centrifugation. Samples are centrifuged at 20 000 g for 10 min at 4° C. 500 μl supernatant is transferred into a new 1.5 ml Eppendorf tube and an equal volume of acetonitrile is added. The sample is mixed again for 30 s using a vortex mixer. After a second centrifugation step (20 000 g, 10 min, 4° C.) 250 μl of the supernatant is transferred into HPLC glass vials for HPLC-MS analysis. Conditions for performing HPLC are as follows: Injection-volume is set to 20 μl. Temperature is set to 25° C. A linear gradient from 95:5 to 5:95 water:acetonitrile both containing 0:05% trifluoroacetic acid (TFA) (v/v) is applied at a flow rate of 0.3 ml/min for 10 min. The PDA-detector is scanning from 210-400 nm.

[5] = system: Factor X deficient human plasma; assay: DDPTGA (reagent B) in FX depleted plasma; details: compounds at 50 μM and 80, 90 or 100 μM
Procedure: (§1) The Defined Dual-Pathway Thrombin Generation Assay is performed as described below, using a commercial test kit (Technothrombin TGA, Technoclone GmbH, Vienna, Austria). […] USA) are incubated four minutes at 37° C. Preferably, Reagent C high is used. Thrombin generation is started by the addition of 40 μl of one of several types of human plasma (37° C.). […] By deviating the original fluorescence data the amount of generated thrombin is calculated from a standard curve constructed using a concentration range of thrombin.
(§2) The in vitro thrombin generation assay based on the cleavage of Z-GGR-AMC to release the fluorophore AMC, described in the specific description, i.e. the Defined Dual-Pathway Thrombin Generation Assay was used to characterise the effect of the compounds in several depleted human plasmas. […] 10 μl peptide dilution, 40 μl TGA substrate and 40 μl plasma were used as described in the specific description.
(§3) The plasmas used in the experiments were fresh frozen and were deficient in Factor V, Factor VII/VIIa, Factor VIII, Factor X or Factor XI (George King Bio-Medical, Inc.). Residual coagulation factor levels of deficient plasmas were specified as less than 1%.
(§4) For each depleted plasma used in the experiments, compounds were tested at two concentrations, namely 50 μM and 80, 90 or 100 μM. A negative control was used, in which no test compound was included.

[6] = system: human FVIII inhibited plasma; assay: Defined Intrinsic Thrombin Generation Assay (DITGA, triggered by FXIa and phospholipids); type: biochemical; details: for Activity in the Defined Intrinsic Thrombin Generation Assay: summary
[7] = system: Factor XI deficient human plasma; assay: DDPTGA (reagent B) in FXI depleted plasma; details: compounds at 50 μM and 80, 90 or 100 μM
Procedure: as §1, §2, §3, §4

[8] = system: Factor VIII deficient human plasma; assay: DDPTGA (reagent B) in FVIII depleted plasma; type: biochemical; details: compounds at 50 μM and 80, 90 or 100 μM; note: key: '+' means stimulates; '−' means does not stimulate
Text: Preferably, Reagent C high is used.

[9] = physchem
Procedure: Aqueous solubility is measured in PBS at pH 7.4 either in an assay provided by Cerep (France, Catalog ref. 900-11a) or according to the following protocol. The aim of this procedure is to determine the solubility of a drug candidate (analyte) in a buffer, by estimating the saturation concentration of the candidate in the buffer using HPLC. A known concentration of the candidate in an organic solvent is used as a standard. A stock solution of the test compound in DMSO must be prepared as the initial step. […] DMSO stock-solutions are diluted to a final concentration of 50 μM with DMSO (100% reference-solution) and buffer (test-solution) to provide a minimum volume of 500 μL of each. Both solutions are shaken at 25° C. at 950 rpm in an Eppendorf “thermomixer comfort” for at least 60 min. The suspension is centrifuged at 22 330 g for at least two min and 100 μL of the supernatant is transferred into polypropylene-inserts placed in glass vials and closed by snap-ring caps. Alternatively the solutions can be prepared in microtiter plates with half of the previously described starting solvent volume. For the determination of the solubility all samples are analyzed by HPLC in triplicate. Injection volume is at least 10 μL. The obtained data are analyzed by “Chemstation-software” (Agilent, Waldbronn, Germany). The peaks from the analyses of the organic solutions are integrated and the arithmetic mean is reported as “AUC 1” (reference area of known amount injected at the HPLC). […] The ratio of the mean “AUC 2” and “AUC 1” is calculated and thus the percentage of the dissolved amount of compound in buffer is obtained and solubility can be reported in μM.

[10] = system: Factor V deficient human plasma; assay: DDPTGA (reagent B) in FV depleted plasma; details: compounds at 50 μM and 80, 90 or 100 μM
Procedure: as §1, §2, §3, §4

[11] = system: Factor VII/VIIa deficient human plasma; assay: DDPTGA (reagent B) in FVII depleted plasma; details: compounds at 50 μM and 80, 90 or 100 μM
Procedure: as §1, §2, §3, §4

| Substance | Peak IIa FEIBA EU ([1]; peptide 50 μM) | Peak IIa FVIIa EU ([1]; peptide 50 μM) | Peak Time FEIBA EU ([1]; peptide 50 μM) | Peak Time FVIIa EU ([1]; peptide 50 μM) | Activity in the Defined Dual-Pathway Thrombin Generation Assay [1] | Peak IIa FVIII EU ([2]; peptide 50 μM) | Peak Time FVIII EU ([2]; peptide 50 μM) | NOAEL at 1 h ([3]; iv) | remaining at 0.5 h, 5 μM [4] | Stimulation of thrombin generation [5] | Thrombin peak time given as FEIBA equivalent activity ([6]; peptide 6.25 μM) | Thrombin peak time given as FEIBA equivalent activity ([6]; peptide 12.5 μM) | Thrombin peak time given as FEIBA equivalent activity ([6]; peptide 25 μM) | Thrombin peak time given as FEIBA equivalent activity ([6]; peptide 50 μM) | Thrombin peak time given as FEIBA equivalent activity ([6]; peptide 100 μM) | Activity in the Defined Intrinsic Thrombin Generation Assay [6] | Stimulation of thrombin generation [7] | Stimulation of thrombin generation [8] | solubility ([9]; pH 7.4, Aqueous solubility) | Stimulation of thrombin generation [10] | further results |
| --- | --- | --- | --- | --- | --- | --- | --- | --- | --- | --- | --- | --- | --- | --- | --- | --- | --- | --- | --- | --- | --- |
| Ac-WDLYFEIVWE [Peptide A06] | BLS (BLS = below lowest standard.) | BLS (BLS = below lowest standard.) | BLS (BLS = below lowest standard.) | BLS (BLS = below lowest standard.) | possess activity | BLS (BLS = below lowest standard.) | BLS (BLS = below lowest standard.) | 1 mg/kg | 98% | + | 571 mU/ml | 750 mU/ml | 843 mU/ml | 919 mU/ml | 879 mU/ml | possess activity | + | + | 164 µM | + | Peak IIa FEIBA EU ([1]; peptide 100 μM): BLS (BLS = below lowest standard.); Peak IIa FVIIa EU ([1]; peptide 100 μM): BLS (BLS = below lowest standard.); Peak Time FEIBA EU ([1]; peptide 100 μM): BLS (BLS = below lowest standard.); Peak Time FVIIa EU ([1]; peptide 100 μM): 0.4 nM; Peak IIa FVIII EU ([2]; peptide 100 μM): BLS (BLS = below lowest standard.); Peak Time FVIII EU ([2]; peptide 100 μM): BLS (BLS = below lowest standard.); NOAEL at 1 h ([3]; ip): 25 mg/kg; solubility ([9]; pH 7.4, Solubility in PBS): 164 µM; Stimulation of thrombin generation [11]: + |
| H-ERMEFDVWDLYFEIVW-NH2 [Peptide A09] | 8.6 mU/ml | BLS (BLS = below lowest standard.) | BLS (BLS = below lowest standard.) | BLS (BLS = below lowest standard.) | possess activity | BLS (BLS = below lowest standard.) | 27.2 mU/ml | 15 mg/kg | 67% | + | 600 mU/ml | 742 mU/ml | 896 mU/ml | 1170 mU/ml | 1365 mU/ml | possess activity | + | + | 63 µM | − | Peak IIa FEIBA EU ([1]; peptide 25 μM): BLS (BLS = below lowest standard.); Peak IIa FVIIa EU ([1]; peptide 25 μM): BLS (BLS = below lowest standard.); Peak Time FEIBA EU ([1]; peptide 25 μM): 7.9 mU/ml; Peak Time FVIIa EU ([1]; peptide 25 μM): 0.2 nM; Peak IIa FVIII EU ([2]; peptide 25 μM): BLS (BLS = below lowest standard.); Peak Time FVIII EU ([2]; peptide 25 μM): 15.6 mU/ml; solubility kinetic ([9]; pH 7.4): 63 µM; solubility ([9]; pH 7.4, Solubility in PBS pH 7.4): ≥ 25 µM; Stimulation of thrombin generation [11]: + |
